Reference: patent US7674471B2, “Topical composition, topical composition precursor, and methods for manufacturing and using” (Skinvisible Pharmaceuticals, Inc., priority 2001, dated 2010)

Experiment: solubility in water or solvents
Source text: In addition, β-cyclodextrin is a relatively small molecule with all of its —OH groups lying on the outside of the molecule. If all of the —OH groups formed complexes with pyrrolidone groups, none would be available to promote water solubility.

Substance | solubility in water
Dextran-70 | extremely soluble in water
Polyvinylpyrrolidone [PVP] | quite water soluble
